Measurements from patent publication US7396837B2, “Antitumoral analogs of lamellarins” (Pharma Mar, S.A.U., priority 2002, dated 2008).
Where two headings read alike, the source gives them in different places.

Columns and labels:
Type in all cases: cell-based
HeLa = test: SRB colorimetric cell growth inhibition assay, HeLa; settings: Homo sapiens, HeLa; for GI50: GI=growth inhibition, read-out: GI50 HELA; for CC50: read-out: LC50 HELA; for IC (TGI): read-out: TGI HELA
Source text: (§1) The finality of these assays is to interrupt the growth of an “in vitro” tumor cell culture by means a continued exhibition of the cells to the sample to be testing.
(§2) A colorimetric type of assay, using sulforhodamine B (SRB) reaction has been adapted for a quantitative measurement of cell growth and viability (following the technique described by P. A. Skehan, et al., J. Natl. Cancer Inst. 1990, 82, 1107-1112).
(§3) This form of assay employs 96 well cell culture microplates of 9 mm diameter (T. Mosmann et al., J. of Immunological Methods 1983, 65, 55-63; G. T. Faircloth et al., J. of Tissue and Culture Methods 1988, 11, 201-205).
(§4) Most of the cell lines are obtained from American Type Culture Collection (ATCC) derived from different human cancer types.
(§5) The values for mean +/− SD of data from triplicate wells are calculated. Some parameters for cellular responses can be calculated: GI=growth inhibition, TGI=total growth inhibition (cytostatic effect) and LC=cell killing (cytotoxic effect).

DU-145 = test: SRB colorimetric cell growth inhibition assay, DU-145; settings: for GI50: GI=growth inhibition, read-out: GI50 DU-145; for CC50: cell killing (cytotoxic effect), read-out: LC50 DU-145; for IC (TGI) / TGI DU-145: total growth inhibition (cytostatic effect); for IC (TGI): read-out: TGI DU-145
Source text: as §1, §2, §3, §4, §5

IGROV-ET = test: SRB colorimetric cell growth inhibition assay, IGROV-ET (ET-743 resistant); settings: IGROV-ET; for GI50: GI=growth inhibition, read-out: GI50 IGROV-ET; for CC50: cell killing (cytotoxic effect), read-out: LC50 IGROV-ET; for IC (TGI) / TGI IGROV-ET: total growth inhibition (cytostatic effect); for IC (TGI): read-out: TGI IGROV-ET
Source text: as §1, §2, §3, §4, §5

HT-29 = test: SRB colorimetric cell growth inhibition assay, HT-29; settings: for GI50: GI=growth inhibition, read-out: GI50 HT-29; for CC50: cell killing (cytotoxic effect), read-out: LC50 HT-29; for IC (TGI) / TGI HT-29: total growth inhibition (cytostatic effect); for IC (TGI): read-out: TGI HT-29
Source text: as §1, §2, §3, §4, §5

HeLa-APL = test: SRB colorimetric cell growth inhibition assay, HeLa-APL (aplidine resistant); settings: Homo sapiens; for GI50: read-out: GI50 HELA-APL; for CC50: read-out: LC50 HELA-APL; for IC (TGI): read-out: TGI HELA-APL
Source text: as §1, §2, §3, §4, §5

SK-MEL-28 = test: SRB colorimetric cell growth inhibition assay, SK-MEL-28; settings: for GI50: GI=growth inhibition, read-out: GI50 MEL-28; for CC50: cell killing (cytotoxic effect), read-out: LC50 MEL-28; for IC (TGI) / TGI MEL-28: total growth inhibition (cytostatic effect); for IC (TGI): read-out: TGI MEL-28
Source text: as §1, §2, §3, §4, §5

PANC-1 = test: SRB colorimetric cell growth inhibition assay, PANC-1; settings: for GI50: GI=growth inhibition, read-out: GI50 PANC-1; for CC50: cell killing (cytotoxic effect), read-out: LC50 PANC-1; for IC (TGI) / TGI PANC-1: total growth inhibition (cytostatic effect); for IC (TGI): read-out: TGI PANC-1
Source text: as §1, §2, §3, §4, §5

LoVo-Dox = test: SRB colorimetric cell growth inhibition assay, LoVo-Dox (MDR); settings: LOVO-DOX; for GI50: GI=growth inhibition, read-out: GI50 LOVO-DOX; for CC50: cell killing (cytotoxic effect), read-out: LC50 LOVO-DOX; for IC (TGI) / TGI LOVO-DOX: total growth inhibition (cytostatic effect); for IC (TGI): read-out: TGI LOVO-DOX
Source text: as §1, §2, §3, §4, §5

SK-BR-3 = test: SRB colorimetric cell growth inhibition assay, SK-BR-3; settings: for GI50: GI=growth inhibition, read-out: GI50 SK-BR-3; for CC50: cell killing (cytotoxic effect), read-out: LC50 SK-BR-3; for IC (TGI) / TGI SK-BR-3: total growth inhibition (cytostatic effect); for IC (TGI): read-out: TGI SK-BR-3
Source text: as §1, §2, §3, §4, §5

A-549 = test: SRB colorimetric cell growth inhibition assay, A-549; settings: for GI50: GI=growth inhibition, read-out: GI50 A-549; for CC50: cell killing (cytotoxic effect), read-out: LC50 A-549; for IC (TGI): read-out: TGI A-549
Source text: as §1, §2, §3, §4, §5

IGROV = test: SRB colorimetric cell growth inhibition assay, IGROV; settings: IGROV; for GI50: GI=growth inhibition, read-out: GI50 IGROV; for CC50: cell killing (cytotoxic effect), read-out: LC50 IGROV; for IC (TGI) / TGI IGROV: total growth inhibition (cytostatic effect); for IC (TGI): read-out: TGI IGROV
Source text: as §1, §2, §3, §4, §5

LoVo = test: SRB colorimetric cell growth inhibition assay, LoVo; settings: for GI50: GI=growth inhibition, read-out: GI50 LOVO; for CC50: cell killing (cytotoxic effect), read-out: LC50 LOVO; for IC (TGI) / TGI LOVO: total growth inhibition (cytostatic effect); for IC (TGI): read-out: TGI LOVO
Source text: as §1, §2, §3, §4, §5

[1] = cell killing (cytotoxic effect)
[2] = total growth inhibition (cytostatic effect)
[3] = HELA-APL, cell killing (cytotoxic effect)
[4] = HELA-APL, total growth inhibition (cytostatic effect)
[5] = Homo sapiens, SK-MEL-28, MEL-28
[6] = Homo sapiens, A549, A-549, total growth inhibition (cytostatic effect)

## COc1cc(-c2c3c4cc(OC)c(OC(=O)CCC5CCCCC5)cc4oc(=O)c3n3ccc4cc(OC(=O)CCC5CCCCC5)c(OC)cc4c23)ccc1OC(=O)CCC1CCCCC1 [Compound 12]
HeLa
  GI50: 1.66 µM
HeLa; [1]
  CC50: 10.9 µM
HeLa; [2]
  IC (TGI): 7.5 µM
DU-145; Homo sapiens, DU-145, DU-145
  GI50: 0.249 µM
  CC50: 7.07 µM
  IC (TGI): 1.43 µM
IGROV-ET; Homo sapiens
  GI50: 10.9 µM
  CC50: 10.9 µM
  IC (TGI): 10.9 µM
HT-29; Homo sapiens, HT-29, HT-29
  GI50: 0.0811 µM
  CC50: 10.9 µM
  IC (TGI): 0.841 µM
HeLa-APL; HELA-APL, GI=growth inhibition
  GI50: 3.66 µM
HeLa-APL; [3]
  CC50: 10.9 µM
HeLa-APL; [4]
  IC (TGI): 10.9 µM
SK-MEL-28; [5]
  GI50: 1.77 µM
  CC50: 10.9 µM
  IC (TGI): 5.98 µM
PANC-1; Homo sapiens, PANC-1, PANC-1
  GI50: 1.62 µM
  CC50: 10.9 µM
  IC (TGI): 8.94 µM
LoVo-Dox; Homo sapiens
  GI50: 10.9 µM
  CC50: 10.9 µM
  IC (TGI): 10.9 µM
SK-BR-3; Homo sapiens, SK-BR-3, SK-BR-3
  GI50: 0.698 µM
  CC50: 10.9 µM
  IC (TGI): 3.45 µM
A-549; Homo sapiens, A549, A-549
  GI50: 1.2 µM
  CC50: 10.9 µM
A-549; [6]
  IC (TGI): 6.64 µM
IGROV; Homo sapiens
  GI50: 1.42 µM
  CC50: 8.01 µM
  IC (TGI): 3.38 µM
LoVo; Homo sapiens, LoVo
  GI50: 1.83 µM
  CC50: 10.9 µM
  IC (TGI): 7.41 µM

## COc1cc2ccn3c(c(-c4ccc(OC(=O)[C@@H](N)Cc5ccccc5)c(OC)c4)c4c5cc(OC)c(OC(=O)[C@@H](N)Cc6ccccc6)cc5oc(=O)c43)c2cc1OC [Compound 13]
HeLa
  CC50: 12.4 µM
  IC (TGI): 9.63 µM
  GI50: 1.83 µM
DU-145; DU-145
  CC50: 12.4 µM
  TGI DU-145: 3.64E−06 Molar
DU-145; Homo sapiens, DU-145, DU-145
  GI50: 0.832 µM
IGROV-ET; Homo sapiens
  GI50: 1.96 µM
IGROV-ET
  CC50: 12.4 µM
  TGI IGROV-ET: 7.86E−06 Molar
HT-29; HT-29
  GI50: 3.22 µM
  CC50: 12.4 µM
  TGI HT-29: 6.39E−06 Molar
HeLa-APL
  GI50: 2.6 µM
  CC50: 12.4 µM
  IC (TGI): 12.1 µM
SK-MEL-28; MEL-28
  GI50: 3.11 µM
  CC50: 12.4 µM
  TGI MEL-28: 1.09E−05 Molar
PANC-1; PANC-1
  GI50: 2.43 µM
  CC50: 12.4 µM
  TGI PANC-1: 1.24E−05 Molar
LoVo-Dox
  GI50: 0.675 µM
  CC50: 12.4 µM
  TGI LOVO-DOX: 3.42E−06 Molar
SK-BR-3; SK-BR-3
  GI50: 0.0454 µM
  CC50: 10.2 µM
  TGI SK-BR-3: 1.13E−07 Molar
A-549; A-549
  GI50: 0.906 µM
  CC50: 12.4 µM
A-549; [6]
  IC (TGI): 12.4 µM
IGROV; Homo sapiens
  GI50: 1.29 µM
IGROV
  CC50: 12.4 µM
  TGI IGROV: 4.79E−06 Molar
LoVo; LOVO
  GI50: 0.754 µM
  CC50: 9.02 µM
  TGI LOVO: 2.35E−06 Molar

## COc1cc2ccn3c(c(-c4ccc(OC(=O)[C@@H](N)C(C)C)c(OC)c4)c4c5cc(OC)c(OC(=O)[C@@H](N)C(C)C)cc5oc(=O)c43)c2cc1OC [Compound 14]
HeLa
  GI50: 1.83 µM
HeLa; [1]
  CC50: 12.4 µM
HeLa; [2]
  IC (TGI): 9.63 µM
DU-145; DU-145
  GI50: 0.517 µM
  CC50: 14 µM
  TGI DU-145: 2.19E−06 Molar
IGROV-ET
  GI50: 0.745 µM
  CC50: 14 µM
  TGI IGROV-ET: 4.97E−06 Molar
HT-29; HT-29
  GI50: 2.47 µM
  TGI HT-29: 7.26E−06 Molar
HeLa-APL; HELA-APL, GI=growth inhibition
  GI50: 2.6 µM
HeLa-APL; [3]
  CC50: 12.4 µM
HeLa-APL; [4]
  IC (TGI): 12.1 µM
SK-MEL-28; MEL-28
  GI50: 1.42 µM
  CC50: 14 µM
  TGI MEL-28: 1.40E−05 Molar
PANC-1; PANC-1
  GI50: 1.18 µM
  TGI PANC-1: 1.40E−05 Molar
LoVo-Dox
  GI50: 0.497 µM
  TGI LOVO-DOX: 1.45E−06 Molar
SK-BR-3; SK-BR-3
  GI50: 0.0424 µM
  CC50: 14 µM
  TGI SK-BR-3: 9.88E−08 Molar
A-549; A-549
  GI50: 0.555 µM
A-549; A-549, total growth inhibition (cytostatic effect)
  TGI A-549: 1.40E−05 Molar
IGROV
  GI50: 0.49 µM
  CC50: 14 µM
  TGI IGROV: 2.44E−06 Molar
LoVo; LOVO
  GI50: 0.597 µM
  TGI LOVO: 2.47E−06 Molar

## COc1cc2ccn3c(c(-c4ccc(OC(=O)[C@H](C)N)c(OC)c4)c4c5cc(OC)c(OC(=O)[C@H](C)N)cc5oc(=O)c43)c2cc1OC [Compound 20]
HeLa
  GI50: 1.17 µM
HeLa; [1]
  CC50: 15.3 µM
HeLa; [2]
  IC (TGI): 15.3 µM
DU-145; Homo sapiens, DU-145, DU-145
  GI50: 0.5 µM
  CC50: 15.3 µM
  IC (TGI): 2.36 µM
IGROV-ET; Homo sapiens
  GI50: 0.593 µM
  CC50: 15.3 µM
  IC (TGI): 15.3 µM
HT-29; Homo sapiens, HT-29, HT-29
  GI50: 3.58 µM
  CC50: 15.3 µM
  IC (TGI): 15.3 µM
HeLa-APL; HELA-APL, GI=growth inhibition
  GI50: 2.09 µM
HeLa-APL; [3]
  CC50: 15.3 µM
HeLa-APL; [4]
  IC (TGI): 15.3 µM
SK-MEL-28; [5]
  GI50: 2.24 µM
  CC50: 15.3 µM
  IC (TGI): 15.3 µM
PANC-1; Homo sapiens, PANC-1, PANC-1
  GI50: 1.24 µM
  CC50: 15.3 µM
  IC (TGI): 15.3 µM
LoVo-Dox; Homo sapiens
  GI50: 0.525 µM
  CC50: 15.3 µM
  IC (TGI): 2.06 µM
SK-BR-3; Homo sapiens, SK-BR-3, SK-BR-3
  GI50: 0.0548 µM
  CC50: 15.3 µM
  IC (TGI): 0.238 µM
A-549; Homo sapiens, A549, A-549
  GI50: 0.589 µM
  CC50: 15.3 µM
A-549; [6]
  IC (TGI): 15.3 µM
IGROV; Homo sapiens
  GI50: 0.516 µM
  CC50: 15.3 µM
  IC (TGI): 7.46 µM
LoVo; Homo sapiens, LoVo
  GI50: 0.436 µM
  CC50: 15.3 µM
  IC (TGI): 8.83 µM
